Test results: patent publication US20240207421A1, “NERVE TARGETING PEPTIDES AND METHODS OF USE” (ALUME BIOSCIENCES, INC., priority 2020, published 2024)

B1: … (peptide)
peptide: SYTATWSEMSRS
B2: … (peptide)
peptide: SVVGWAAPRTAQ
B3: … (peptide)
peptide: TILKPAAQGFAD
B4: … (peptide)
peptide: CLQKNHKFC
B5: … (peptide)
peptide: HQSVTGVRSHFH
B6: … (peptide)
peptide: SVLSTGTANQRH
B7: … (peptide)
peptide: SVQTPMWRSLVG
B8: … (peptide)
peptide: QPTPSQIKFTRT
B9: … (peptide)
peptide: GWTSDLSRNVRG
B10: … (peptide)
peptide: SLPYAASLNSVE
B11: TKGIAPK (peptide)
peptide: TKGIAPK
B12: … (peptide)
peptide: KFADTKLTSLRY
B13: EAVSTQI (peptide)
peptide: EAVSTQI
B14: … (peptide)
peptide: AQNLRVHAWASL
B15: … (peptide)
peptide: ETGGLAYGSGQK
B16: … (peptide)
peptide: TALSHRHEAMRW
B17: … (peptide)
peptide: GIVPSRHTTGLG
B18: … (peptide)
peptide: CKSPIKGTC
B19: … (peptide)
peptide: SWHFTGTPFMNR
B20: … (peptide)
peptide: VIADQSKSAVAV
B21: HTQIHRL (peptide)
peptide: HTQIHRL
B22: … (peptide)
peptide: TTLWLDRDEALK
B23: … (peptide)
peptide: TVARSTAQERSI
B24: STNVQRA (peptide)
peptide: STNVQRA
B25: … (peptide)
peptide: CIGGPHRNC
B26: … (peptide)
peptide: CTSSSHQTC
B27: … (peptide)
peptide: AVRPLGLPDNHR
B28: … (peptide)
peptide: CPMHQSKTC
B29: … (peptide)
peptide: GINLRALDLHAN
B30: QLQHVHL (peptide)
peptide: QLQHVHL
B31: … (peptide)
peptide: CVLKCEDQKYRG
B32: … (peptide)
peptide: CTDGRNFVC
B33: … (peptide)
peptide: RALDRYLPWSPH
B34: TSAVSLR (peptide)
peptide: TSAVSLR
B35: … (peptide)
peptide: DRMYSTVPAEGL
B36: … (peptide)
peptide: CTGETLLTC

Experiments:
[1] = test system: excised human nerve tissue (or nerve extracts); experiment: Phage display library screening (Example 2), NEB tissue-binding peptides: nerve tissue and nerve extracts versus muscle; details: unique sequence count, peptides not binding muscle extracts; for Count Excised Nerve: tissue target: excised nerve; for Count Nerve Extract: tissue target: nerve extract; for Count Neuron: tissue target: neuron
Protocol: Phage display library screens were used to identify peptides that bind to target proteins (including specific laminin trimers) that are expressed in human nerves, as described in Table 3. These screens were also carried out to identify peptides that could bind selectively to nerves versus muscle. Such peptides could therefore be useful for systemic in-vivo labeling of nerves during fluorescence assisted surgery. Specifically, m 13 phage libraries expressing 7 or 12 random amino acid peptides, or a cyclic peptide CX7C, on the N-terminus of the minor coat protein pIII (New England Biolabs; NEB) were processed through multiple rounds of selection for binding to target proteins expressed in nerves, or to excised human nerves, nerve extracts, or muscle, as described further below.
To identify peptides selective for nerves versus muscle, phage from the same libraries used for specific target proteins were used to screen against excised human nerve tissue (or nerve extracts) and human muscle tissue.
Excised Nerve Tissue: Phage were processed through multiple cycles of selection, with representative phage being isolated and sequenced after each selection cycle. Specifically, for selection using human nerve tissue, a sample of […] tissue (2 mm by 2 mm) was washed prior to mixing and incubation with a phage library. After incubation, the mixture (containing mostly intact nerves with phage particles that had variable affinity for nerves) was centrifuged and the nerve pellet washed multiple times with PBS to remove phage with little or no affinity for nerve tissue. The pellet was homogenized and plated for titering and reamplification. Phage that were bound at each round were sequenced. NextGen sequencing of pools after 2, 3 and 4 rounds of selection were used to isolate candidate sequences that were further analyzed using bioinformatics.
Nerve Extracts: Phage libraries were incubated for up to 24 hours at 4° C. in 96 well plates that had been coated with a human nerve extract. Plates were then washed with PBS and phage were eluted using 0.2M glycine pH 2.0. Phage supernatants where then neutralized with Tris pH 9.0 prior to plating on TG1 bacteria and LB agar plates. Colonies were counted to determine titer followed by DNA preparation of pools of phage and NextGen sequencing. After rounds of selection, phage were pooled and amplified for iterative selection. Phage that eluted by 0.2M glycine pH 2.0 (the nerve binders) at each round were sequenced. NextGen sequencing of pools after 2, 3 and 4 rounds of selection were used to isolate candidate sequences that were further analyzed using bioinformatics.
Muscle Tissue: Phage were processed through multiple cycles of selection, with representative phage being isolated and sequenced after each selection cycle. Specifically, for selection using human skeletal muscle tissue, a sample of skeletal muscle tissue (2 mm by 2 mm) was washed prior to mixing and incubation with a phage library. After incubation, the mixture (containing mostly intact muscle with phage particles that had variable affinity for muscle) was centrifuged and the muscle pellet washed multiple times with PBS to remove phage with little or no affinity for muscle tissue. The pellet was then homogenized and plated for titering and reamplification. Phage that were bound at each round were sequenced. NextGen sequencing of pools after 2, 3 and 4 rounds of selection were used to isolate candidate sequences that were further analyzed using bioinformatics.
For all NEB sequence datasets, a python script was used to translate, trim, and filter the peptide sequences (see details above). A python script was used to group peptides from different assays according to tissue target (muscle, nerve, neuron, or nerve extract) and combine the unique sequence counts for each peptide. […]

[2] = target: Laminin 421/521; experiment: phage display, NGS count

Molecule	Count Excised Nerve [1]	Count Nerve Extract [1]	Count Neuron [1]	Count [2]
VRSDMVSGGLQK	14	20	6	
GTALNLQKDINK	6	12	6	
TDNGSFLGKLTS	7	14	7	
GTVSYMVKMDNN	9	16	7	
NRIGHGTATGTL	22	28	6	
EFARFRVFGVAE	22	30	8	
KTTSMTALTMGL	9	21	12	
VPVPKKMSLDPT	8	14	6	
QNIVENFIDNER	20	27	7	
ALNHNGPVKTGL	10	16	6	
SLQLWNSEKVTT	10	16	6	
TLNARDQLSING (nerve-binding peptide)	7	13	6	
NTEYSRYTSIWK	8	14	6	
GLWDGKGRIVEV	9	16	7	
B1				28
B2				27
B3				27
B4				27
B5				27
B6				28
B7				28
B8				28
B9				28
B10				28
B11				28

Molecule	Count Excised Nerve [1]	Count Nerve Extract [1]	Count Neuron [1]	Count [2]
B12				28
B13				27
B14				28
B15				28
B16				28
B17				28
B18				27
B19				28
B20				27
B21				28
B22				27
B23				28
B24				28
B25				29
B26				28
B27				29
B28				28
B29				27
B30				28
B31				27
B32				28
B33				28
B34				27
B35				27
B36				28
